Consider 60 molecules from the METLIN SMRT retention time set (Domingo-Almenara et al. 2019).

A short description of this data set: gradient 5% acetonitrile 3 min, to 50% in 2 min, to 85% in 15 min, held 3 min, 100 µL/min. The conditions noted are these: column: Zorbax Extend-C18 2.1 x 50 mm; eluents: water / acetonitrile, 0.1% formic acid. An outline of the steps: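 Pure standards were analyzed in mixtures of ~100 molecules using HPLC coupled to a quadrupole time-of-flight mass spectrometer, in both positive and negative ionization mode. Separation used a Zorbax Extend-C18 column (2.1 × 50 mm, 1.8 μm) at 100 μL/min, with water and acetonitrile each containing 0.1% formic acid. Dead and dwell volumes were 40 μL and 900 μL, and data were collected over 3 months. Retention time was read from computationally picked adduct peaks, each inspected manually.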
Regarding `COc1cc(CN2C[C@@H]3C(=O)N(CCc4ccccc4)C(=O)[C@@H]3C2)cc(OC)c1`, the RP-LC retention time is 753 s. Molecule `COC(=O)c1ccc2c(=O)n(-c3cc(C)cc(C)c3)c(N3CCOCC3)nc2c1` returned an RP-LC retention time of 1040 s.

Regarding `Cc1ccnc(N2CCCC(C(=O)NCCCN3CCN(c4cc(Cl)ccc4C)CC3)C2)n1` (stereo not given), the RP-LC retention time came to 670 s. Consider `CCN1CCCn2nc(C3CCN(C(=O)c4cncc(Br)c4)CC3)cc2C1=O`, for which the RP-LC retention time is 659 s. On to `O=C1N(c2cccc(F)c2)c2ncccc2S(=O)(=O)N1Cc1ccccc1`, for which the RP-LC retention time was 1020 s.

Molecule `Cc1cccc(NS(=O)(=O)c2cc3c(s2)CCN(C(=O)C2CC2)C3)c1` yielded an RP-LC retention time of 849 s. Take `O=C(N[C@@H]1CN(Cc2ccc3c(c2)CCO3)C[C@H]1CO)C1CC1`: the RP-LC retention time came out at 632 s. As for `COC(=O)c1c(NCc2ccccc2C)c2cccc(Cl)c2[nH]c1=O`, the RP-LC retention time was 859 s. The result for `COc1ccc(-c2noc(-c3nn(-c4cccc(OC)c4)ccc3=O)n2)cc1` reads 876 s; that for `O=C(Cn1cccc1-c1nc(-c2ccc(F)cc2)no1)Nc1ccc2c(c1)OCO2`, 1010 s; that for `Fc1cccc(Cl)c1C1SCc2nc3ccccc3n21` (stereo not given), 845 s. Consider `CCOc1ccc(CCNC(=O)c2cc3sccc3n2CC)cc1OCC`, for which the RP-LC retention time amounted to 1050 s. `CCOc1ccc(NC(=O)N2CCC(n3c(-c4ccoc4)nc4cccnc43)C2)cc1` (stereo not given) gave an RP-LC retention time of 735 s.

Molecule `CC(C)(C)c1ccc(NC(=O)NCCN2CCN(S(C)(=O)=O)CC2)cc1` yielded an RP-LC retention time of 606 s. `O=C(c1cc(F)cc(F)c1)N1CCN(c2cc(-c3ccc(F)cc3)[nH]n2)CC1`: the RP-LC retention time was 837 s. The result for `COc1ccc(-c2noc(Cn3nc(-c4ccccc4)ccc3=O)n2)cc1OC` reads 900 s. The result for `Cc1cc(N2CCN(C(=O)COc3ccc(Cl)cc3)CC2)nc2nncn12` reads 629 s; that for `CC(=O)c1ccc(OC(=O)c2ccc3c(c2)C(=O)N(c2ccccc2)C3=O)cc1`, 751 s.

In turn, `CC1(CNC(=O)c2ccc3c(c2)OCO3)CCOCC1` had an RP-LC retention time of 664 s. The result for `COCCN1CCCCc2cc(C(=O)NC3CCS(=O)(=O)C3)sc21` (stereo not given) reads 734 s; that for `CC(C)n1cc(S(=O)(=O)Nc2cc(F)ccc2Cl)c2cccnc21`, 989 s; that for `Cc1ccc(NC(=O)N2CCC(C(C)C(=O)Nc3ccc(Cl)cc3)CC2)cc1` (stereo not given), 951 s. The result for `CCCNC(=O)CCc1nc2ccccc2n(CC(=O)NC(C)CC)c1=O` (stereo not given) reads 688 s. Molecule `Cc1ccc(NC(=O)C2CC(=O)N(c3n[nH]c4cccc(F)c34)C2)c(C)c1` (stereo not given) yielded an RP-LC retention time of 770 s.

Molecule `COc1ccc(OC)c(-c2ccc(=O)n(CCc3nc(-c4ccc(F)cc4)no3)n2)c1` yielded an RP-LC retention time of 977 s.

Molecule `COC(=O)c1sccc1NC(=O)N1CCCC1c1noc(COc2ccc(F)cc2)n1` (stereo not given) registered an RP-LC retention time of 1040 s.

Consider `O=C(Nc1ccc(N2CCCCS2(=O)=O)cc1)OCc1ccccc1`, for which the RP-LC retention time was determined as 769 s.

Molecule `Cc1cc2[nH]c(C(=O)Nc3cc(F)c(F)c(F)c3)c(CN(C)C)c2s1` returned an RP-LC retention time of 743 s. The result for `CCCN(C(=O)CC)c1nc(-c2ccc(C)cc2)cs1` reads 1330 s. The result for `Cc1ccc(Cl)cc1N(C)C(=O)Cn1ccc2c(=O)n(C)c(=O)n(C)c21` reads 738 s. With `CC(C)NC(=O)C1CCN(C(=O)c2ncn3c2COC(c2ccc(Cl)cc2)C3)CC1` (stereo not given), the RP-LC retention time turned out to be 679 s.

`O=C(N[C@H]1C[C@@H]2C[C@H]1CN2C(=O)c1ccoc1)c1ccccc1`: the RP-LC retention time turned out to be 663 s.

`O=C(c1cccs1)N1CCOc2ccc(N3CCCC3)cc2C1` registered an RP-LC retention time of 825 s. The molecule `CC(C)Cn1c(=O)c(N2CCN(C(=O)Cc3ccsc3)CC2)nc2ccncc21` returned an RP-LC retention time of 653 s. The result for `Cc1ccc2nc(NC(=O)CN3CCc4nc(NC(=O)C5CC5)sc4C3)sc2c1` reads 600 s; that for `Cc1ccc(C)c(NC(=O)N2CCCC2c2nncn2-c2ccccc2)c1` (stereo not given), 729 s. The result for `CNC(=O)C1CN(C(=O)Cc2cccc(Cl)c2)CC12CCCC2` (stereo not given) reads 740 s; that for `CN(CC(=O)NC1CCCC1)S(=O)(=O)c1ccc2nc(-c3ccccc3)[nH]c2c1`, 754 s; that for `COc1ccc(-c2nc(-c3ccc4nncn4c3)no2)c(OC)c1`, 800 s. As for `Cc1ccc(-c2cn3c4c(=O)n(C)c(=O)n(C)c4nc3n2Cc2ccc(F)cc2)cc1`, the RP-LC retention time worked out at 983 s. `O=C(Nc1cccc2cccnc12)c1ccc(N2C(=O)[C@@H]3[C@H](C2=O)[C@@H]2C=C[C@H]3C2)cc1` yielded an RP-LC retention time of 941 s. With `Cc1ccc(S(=O)(=O)c2nc(C)oc2NCc2ccco2)cc1`, the RP-LC retention time was 814 s.

On to `CCn1c(C(=O)NCCCN2CCCCC2C)c(N2CCCC2=O)c2cc(F)ccc21` (stereo not given), for which the RP-LC retention time came to 654 s. The result for `O=C(NCc1ccc(F)cc1Cl)c1sc2ncccc2c1-n1cccc1` reads 1060 s; that for `O=C(Nc1cccc(C(F)(F)F)c1)N1CC(c2nc(-c3cccs3)no2)C1`, 917 s; that for `O=C(NCCS(=O)(=O)N1CCc2ccccc2C1)C1CC1`, 695 s. The result for `CCOC(=O)c1c(C)[nH]c2cc(Br)c(O)cc12` reads 768 s; that for `COc1cccc(CNC(=O)C2(C)CCCN(C(=O)Nc3cccc(F)c3)C2)c1` (stereo not given), 872 s.

Molecule `Cc1ccccc1-c1csc(Nc2ccc(Br)cn2)n1` displayed an RP-LC retention time of 1230 s. In turn, `CC1(C)C(=O)Nc2ccc(S(=O)(=O)N3CCC(c4noc(-c5ccccn5)n4)C3)cc21` (stereo not given) showed an RP-LC retention time of 705 s. `CCOCCCNC(=O)c1nnc(-c2ccc(S(=O)(=O)N3CCC(C)CC3)cc2)o1` displayed an RP-LC retention time of 924 s.

For the molecule `CCc1ccc(NC(=O)Cn2c(N)nc(CC)cc2=O)cc1`, the RP-LC retention time turned out to be 596 s.

In turn, `CCCCS(=O)(=O)N1CCCC(Cn2c(C3CC3)nc3cccnc32)C1` (stereo not given) showed an RP-LC retention time of 698 s. In turn, `CC(=O)N1CCCC(CCc2nnc(C3CCOCC3)o2)C1` (stereo not given) gave an RP-LC retention time of 608 s.

In turn, `COc1cc(NC(=O)C2CCN(C(=O)C3Sc4ccccc4NC3=O)CC2)cc(OC)c1` (stereo not given) returned an RP-LC retention time of 754 s. The molecule `CSCCC(NC(=O)COc1cccc2ccccc12)C(=O)O` (stereo not given) yielded an RP-LC retention time of 769 s. The result for `O=C(NC1CCN(c2ccccc2)C1=O)c1ccccc1Br` (stereo not given) reads 766 s; that for `Cn1cc(CCN2CCN(S(=O)(=O)c3ccc4c(c3)CCC4)CC2)c2cccnc21`, 668 s. Molecule `COC(=O)c1cc(Nc2ccc(OC)cc2OC)c2ccccc2n1` returned an RP-LC retention time of 581 s. `COc1ccc(OC)c(CNC(=O)C2CCN(c3ncnc4c3oc3ccccc34)CC2)c1`: the RP-LC retention time amounted to 754 s.
